Reference: PubChem BioAssay (NCI)
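Exposure lasted 48 hours, with cells grown in 96-well plates and compounds tested at five concentrations. GI50 = concentration required for 50% inhibition of growth. At the TGI there is no net growth.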

Experiments:
Test in all cases: inhibition of tumour cell growth, NCI panel, 48 h
UACC-257 melanoma = tested on: UACC-257 melanoma
SK-MEL-5 melanoma = tested on: SK-MEL-5 melanoma
DU-145 prostate = tested on: DU-145 prostate
MDA-MB-435 = tested on: MDA-MB-435
PC-3 prostate = tested on: PC-3 prostate
HS 578T breast = tested on: HS 578T breast
MALME-3M melanoma = tested on: MALME-3M melanoma
ACHN renal = tested on: ACHN renal
RPMI-8226 leukemia = tested on: RPMI-8226 leukemia
KM12 colon = tested on: KM12 colon

| SMILES | TGI (UACC-257 melanoma) | TGI (SK-MEL-5 melanoma) | TGI (DU-145 prostate) | TGI (MDA-MB-435) | TGI (PC-3 prostate) | TGI (HS 578T breast) | TGI (MALME-3M melanoma) | GI50 (ACHN renal) | TGI (ACHN renal) | GI50 (DU-145 prostate) | GI50 (RPMI-8226 leukemia) | TGI (RPMI-8226 leukemia) | GI50 (HS 578T breast) | GI50 (MALME-3M melanoma) | TGI (KM12 colon) | GI50 (UACC-257 melanoma) | GI50 (SK-MEL-5 melanoma) | GI50 (MDA-MB-435) | GI50 (PC-3 prostate) | GI50 (KM12 colon) |
| --- | --- | --- | --- | --- | --- | --- | --- | --- | --- | --- | --- | --- | --- | --- | --- | --- | --- | --- | --- | --- |
| O=c1oc2cc(O)ccc2c(O)c1C(c1ccccc1)c1c(O)c2ccc(O)cc2oc1=O | > 100 µM | > 100 µM | > 100 µM | > 100 µM | > 100 µM | > 100 µM | > 100 µM | – | – | – | – | – | – | – | – | – | – | – | – | – |
| O=C1CC2(CCC(O)(c3ccc4ccccc4c3)C(C(=O)c3ccc4ccccc4c3)C2)C(=O)c2ccccc2N1 (stereo not given) | > 100 µM | > 100 µM | > 100 µM | > 100 µM | > 100 µM | > 100 µM | > 100 µM | – | – | – | – | – | – | – | – | – | – | – | – | – |
| COc1cnc2c(c1)C(=O)c1c-2n(CCCN2CCOCC2)c(=O)c2cc(Cl)ccc12 | – | – | > 100 µM | – | – | > 100 µM | > 100 µM | 0.332 µM | > 100 µM | 0.41 µM | 0.426 µM | > 100 µM | 24.9 µM | > 100 µM | – | – | – | – | – | – |
| O=C1CCC(c2ccccc2)=NN1c1nsc2ccccc12 | > 100 µM | > 100 µM | – | – | – | – | – | – | > 100 µM | – | – | > 100 µM | – | – | > 100 µM | – | – | – | – | – |
| Nc1ncc(-c2ccc3ncnc(Nc4ccc(F)c(Cl)c4)c3c2)cn1 | 31.7 µM | 9.69 µM | > 100 µM | 13.4 µM | 53.6 µM | 3.52 µM | 4.47 µM | 0.387 µM | 2.05 µM | 0.759 µM | 2.15 µM | 7.51 µM | 1.19 µM | 1.29 µM | > 100 µM | 13.4 µM | 2.84 µM | 2.31 µM | 2.48 µM | 5.01 µM |
| O=C(O)C(Cl)(Cl)Cl | > 100 µM | > 100 µM | – | – | – | – | > 100 µM | – | > 100 µM | – | – | > 100 µM | – | – | > 100 µM | – | – | – | – | – |
